# Experimental data from patent publication US20110165076A1, “NOVEL [F-18]- LABELLED L-GLUTAMIC ACID AND L-GLUTAMINE DERIVATIVES (I), USE THEREOF AND METHOD FOR THEIR PRODUCTION” (BAYER SCHERING PHARMA AKTIENGESELLSCHAFT, priority 2008, published 2011).
# Key:
# A549 cells = test: Competition cell experiment: uptake of tracer 4R/S-[F-18]F-L-glutamic acid in presence of competitor; format: cell-based, human; conditions: competitor 1 mM; for % Tracer uptake: A549 cells, 10 min incubation with 0.250 MBq 4R/S-[F-18]F-L-Glu in PBS buffer; for inhibition of tracer uptake (competition): tracer 4R/S-[F-18]F-L-glutamic acid
# Description: The uptake of the glutamic acid derivatives according to the invention into tumour cells was investigated in cell experiments. Here, the uptake of a radiolabelled glutamic acid derivative (4R/S—[F-18]F-L-glutamic acid) was examined in the presence of the compounds according to the invention and control susbtances (competition experiments). The compounds according to the invention were employed in excess (1 mM) over 4R/S—[F-18]F-L-glutamic acid (tracer).
# [1] = tested on: A549 and H460 tumour cells; test: Cell uptake of F-18-labelled glutamic acid derivative in tumour cells; conditions: for cellular uptake (FIG. 2): after 30 min
# Description: Following labelling with F-18, (2S,4S)-2-amino-4-(3-[F-18]fluoropropyl)pentanedioic acid was examined in cell experiments with A549 and H460 tumour cells (both human non-small-cell bronchial carcinoma cell lines).
# A549 tumour = test: PET/CT imaging in mice bearing A549 tumours; format: in vivo; conditions: 60 min after i.v. 10 MBq, 20 min acquisition
# H460 tumour = test: PET in rats bearing H460 tumours; format: in vivo; conditions: 80 min after i.v. 18 MBq, 20 min acquisition
# A549 tumours = test: Organ distribution experiment in mice bearing A549 tumours; format: in vivo; conditions: for % dose/g adrenals / % dose/g blood / % dose/g bone / % dose/g brain / % dose/g fat / % dose/g heart / % dose/g intestine / % dose/g kidney / % dose/g liver / % dose/g lung / % dose/g muscle / % dose/g ovary / % dose/g pancreas / % dose/g skin / % dose/g spleen / % dose/g stomach / % dose/g tail / % dose/g thyroid / % dose/g tumour / % dose/g uterus: i.v. 250 kBq
compound,measurement,setting,value
"N[C@@H](C[C@H](CCCF)C(=O)O)C(=O)O [4S-(3-fluoropropyl)-L-Glu, (2S,4S)-2-Amino-4-(3-fluoropropyl)pentanedioic acid]",% Tracer uptake,A549 cells,5.4%
same,inhibition of tracer uptake (competition),A549 cells,> 94%
C[C@@H](C[C@H](N)C(=O)O)C(=O)O [(4S)-methyl-L-Glu],% Tracer uptake,A549 cells,7.7%
same,inhibition of tracer uptake (competition),A549 cells,92%
"OC[C@H]1OC(O)[C@H]([18F])[C@@H](O)[C@@H]1O (stereo partly shown) [[F-18]FDG, [^18F]-2-Fluorodeoxyglucose, reference compound]",cellular uptake (FIG. 2),[1],770 000 cpm/100 000 cells
"N[C@@H](CCC(=O)O)C(=O)O [L-Glu, L-configured glutamic acid]",% Tracer uptake,A549 cells,12.6%
same,inhibition of tracer uptake (competition),A549 cells,87%
C[C@H](C[C@H](N)C(=O)O)C(=O)O [(4R)-methyl-L-Glu],% Tracer uptake,A549 cells,33.5%
same,inhibition of tracer uptake (competition),A549 cells,64%
N[C@@H](C[C@H](CCC[18F])C(=O)O)C(=O)O,uptake into the A549 tumour (PET/CT image analysis),A549 tumour,high uptake
same,uptake into the H460 tumour (PET image analysis),H460 tumour,high uptake
same,% dose/g adrenals,A549 tumours; 0.25 h,0.94 % dose/g
same,% dose/g adrenals,A549 tumours; 0.5 h,0.78 % dose/g
same,% dose/g adrenals,A549 tumours; 1.0 h,0.27 % dose/g
same,% dose/g adrenals,A549 tumours; 2.00 h,0.20 % dose/g
same,% dose/g blood,A549 tumours; 0.25 h,0.72 % dose/g
same,% dose/g blood,A549 tumours; 0.5 h,0.35 % dose/g
same,% dose/g blood,A549 tumours; 1.0 h,0.13 % dose/g
same,% dose/g blood,A549 tumours; 2.00 h,0.07 % dose/g
same,% dose/g bone,A549 tumours; 0.25 h,0.44 % dose/g
same,% dose/g bone,A549 tumours; 0.5 h,0.37 % dose/g
same,% dose/g bone,A549 tumours; 1.0 h,0.20 % dose/g
same,% dose/g bone,A549 tumours; 2.00 h,0.20 % dose/g
same,uptake into the bones,"A549 tumours; bones, at all points in time",< 0.5 % ID/g
same,% dose/g brain,A549 tumours; 0.25 h,0.09 % dose/g
same,% dose/g brain,A549 tumours; 0.5 h,0.10 % dose/g
same,% dose/g brain,A549 tumours; 1.0 h,0.06 % dose/g
same,% dose/g brain,A549 tumours; 2.00 h,0.05 % dose/g
same,% dose/g fat,A549 tumours; 0.25 h,0.31 % dose/g
same,% dose/g fat,A549 tumours; 0.5 h,0.08 % dose/g
same,% dose/g fat,A549 tumours; 1.0 h,0.04 % dose/g
same,% dose/g fat,A549 tumours; 2.00 h,0.09 % dose/g
same,% dose/g heart,A549 tumours; 0.25 h,0.42 % dose/g
same,% dose/g heart,A549 tumours; 0.5 h,0.20 % dose/g
same,% dose/g heart,A549 tumours; 1.0 h,0.08 % dose/g
same,% dose/g heart,A549 tumours; 2.00 h,0.05 % dose/g
same,% dose/g intestine,A549 tumours; 0.25 h,1.27 % dose/g
same,% dose/g intestine,A549 tumours; 0.5 h,0.90 % dose/g
same,% dose/g intestine,A549 tumours; 1.0 h,0.52 % dose/g
same,% dose/g intestine,A549 tumours; 2.00 h,0.32 % dose/g
same,% dose/g kidney,A549 tumours; 0.25 h,14.38 % dose/g
same,% dose/g kidney,A549 tumours; 0.5 h,6.44 % dose/g
same,% dose/g kidney,A549 tumours; 1.0 h,2.01 % dose/g
same,% dose/g kidney,A549 tumours; 2.00 h,0.80 % dose/g
same,uptake in kidneys,"A549 tumours; kidneys, after 0.25 h",14.4 % ID/g
same,activity in kidneys,"A549 tumours; kidneys, after 1 h",2 % ID/g
same,% dose/g liver,A549 tumours; 0.25 h,0.55 % dose/g
same,% dose/g liver,A549 tumours; 0.5 h,0.46 % dose/g
same,% dose/g liver,A549 tumours; 1.0 h,0.21 % dose/g
same,% dose/g liver,A549 tumours; 2.00 h,0.11 % dose/g
same,% dose/g lung,A549 tumours; 0.25 h,1.35 % dose/g
same,% dose/g lung,A549 tumours; 0.5 h,1.08 % dose/g
same,% dose/g lung,A549 tumours; 1.0 h,0.50 % dose/g
same,% dose/g lung,A549 tumours; 2.00 h,0.29 % dose/g
same,% dose/g muscle,A549 tumours; 0.25 h,0.17 % dose/g
same,% dose/g muscle,A549 tumours; 0.5 h,0.09 % dose/g
same,% dose/g muscle,A549 tumours; 1.0 h,0.05 % dose/g
same,% dose/g muscle,A549 tumours; 2.00 h,0.03 % dose/g
same,% dose/g ovary,A549 tumours; 0.25 h,1.82 % dose/g
same,% dose/g ovary,A549 tumours; 0.5 h,1.13 % dose/g
same,% dose/g ovary,A549 tumours; 1.0 h,0.94 % dose/g
same,% dose/g ovary,A549 tumours; 2.00 h,0.28 % dose/g
same,% dose/g pancreas,"A549 tumours; pancreas, 0.25 h",13.64 % dose/g
same,% dose/g pancreas,"A549 tumours; pancreas, 0.5 h",8.51 % dose/g
same,% dose/g pancreas,"A549 tumours; pancreas, 1.0 h",3.99 % dose/g
same,% dose/g pancreas,"A549 tumours; pancreas, 2.00 h",1.35 % dose/g
same,uptake in pancreas,"A549 tumours; pancreas, after 0.25 h",13.6 % ID/g
same,activity in pancreas,"A549 tumours; pancreas, after 1 h",4 % ID/g
same,% dose/g skin,A549 tumours; 0.25 h,1.71 % dose/g
same,% dose/g skin,A549 tumours; 0.5 h,2.26 % dose/g
same,% dose/g skin,A549 tumours; 1.0 h,1.80 % dose/g
same,% dose/g skin,A549 tumours; 2.00 h,1.01 % dose/g
same,% dose/g spleen,A549 tumours; 0.25 h,2.87 % dose/g
same,% dose/g spleen,A549 tumours; 0.5 h,1.76 % dose/g
same,% dose/g spleen,A549 tumours; 1.0 h,1.02 % dose/g
same,% dose/g spleen,A549 tumours; 2.00 h,0.53 % dose/g
same,% dose/g stomach,A549 tumours; 0.25 h,3.25 % dose/g
same,% dose/g stomach,A549 tumours; 0.5 h,2.64 % dose/g
same,% dose/g stomach,A549 tumours; 1.0 h,0.96 % dose/g
same,% dose/g stomach,A549 tumours; 2.00 h,0.39 % dose/g
same,% dose/g tail,A549 tumours; 0.25 h,2.74 % dose/g
same,% dose/g tail,A549 tumours; 0.5 h,3.45 % dose/g
same,% dose/g tail,A549 tumours; 1.0 h,1.19 % dose/g
same,% dose/g tail,A549 tumours; 2.00 h,1.69 % dose/g
same,% dose/g thyroid,A549 tumours; 0.25 h,1.17 % dose/g
same,% dose/g thyroid,A549 tumours; 0.5 h,1.31 % dose/g
same,% dose/g thyroid,A549 tumours; 1.0 h,0.77 % dose/g
same,% dose/g thyroid,A549 tumours; 2.00 h,0.42 % dose/g
same,% dose/g tumour,"A549 tumours; tumour, 0.25 h",2.42 % dose/g
same,injected dose per g in the tumour,"A549 tumours; tumour, 0.25 h after injection",2.4 % ID/g
same,% dose/g tumour,"A549 tumours; tumour, 0.5 h",1.82 % dose/g
same,% dose/g tumour,"A549 tumours; tumour, 1.0 h",1.58 % dose/g
same,% dose/g tumour,"A549 tumours; tumour, 2.00 h",0.97 % dose/g
same,tumour uptake,"A549 tumours; tumour, after 1 h",1.6 % ID/g
same,% dose/g uterus,A549 tumours; 0.25 h,1.30 % dose/g
same,% dose/g uterus,A549 tumours; 0.5 h,1.27 % dose/g
same,% dose/g uterus,A549 tumours; 1.0 h,0.93 % dose/g
same,% dose/g uterus,A549 tumours; 2.00 h,0.37 % dose/g
same,cellular uptake (FIG. 2),[1],840 000 cpm/100 000 cells
same,cellular uptake,"[1]; after 30 min of incubation, A549 and H460 tumour cells",899 000 cpm per 100 000 cells
same,accumulation in tumour cells compared to [F-18]FDG,[1]; after 30 minutes of incubation,accumulates to a greater degree
N[C@@H](C[C@@H](O)C(=O)O)C(=O)O [(4R)-hydroxy-L-Glu],% Tracer uptake,A549 cells,29.6%
same,inhibition of tracer uptake (competition),A549 cells,70%
N[C@@H](C[C@H](O)C(=O)O)C(=O)O [(4S)-hydroxy-L-Glu],% Tracer uptake,A549 cells,13.2%
same,inhibition of tracer uptake (competition),A549 cells,87%
NC(CC(F)C(=O)O)C(=O)O [(4R/S)-fluoro-D/L-Glu],% Tracer uptake,A549 cells,16.3%
